This experiment addresses T1, KKT23^2–348 (Trypanosoma brucei, UniProt Q38AU6).
T1 construct: gene Tb10.70.0180; full-length recombinant protein (residues 2-348), E. coli, His-tag cut by TEV, monomer, calculated 39 kDa; strain printed for the cell lines only
T1 sequence (Q38AU6 2-348): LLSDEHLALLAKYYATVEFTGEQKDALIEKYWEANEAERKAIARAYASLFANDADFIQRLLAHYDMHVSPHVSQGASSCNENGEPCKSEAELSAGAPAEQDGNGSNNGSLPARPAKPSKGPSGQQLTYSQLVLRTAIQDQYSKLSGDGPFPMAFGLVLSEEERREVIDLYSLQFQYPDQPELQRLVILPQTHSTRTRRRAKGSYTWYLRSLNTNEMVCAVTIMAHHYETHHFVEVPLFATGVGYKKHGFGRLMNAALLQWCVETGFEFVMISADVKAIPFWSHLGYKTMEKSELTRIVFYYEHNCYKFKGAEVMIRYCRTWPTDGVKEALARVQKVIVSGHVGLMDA
The experiment is described as follows: histone acetyltransferase assay, anti-acetyl-lysine immunoblot and mass spectrometry. It counts as biochemical. The settings on record: co-substrate reconstituted T. brucei nucleosomes (H2A C-terminal tail); up to 200 uM acetyl-CoA; pH 8.0, 30 C, 1 h. A general note: Immunoblotting shows a protein as a band on a membrane.

On to `CC(=O)SCCNC(=O)CCNC(=O)[C@H](O)C(C)(C)COP(=O)(O)OP(=O)(O)OC[C@H]1O[C@@H](n2cnc3c(N)ncnc32)[C@H](O)[C@@H]1OP(=O)(O)O` [acetyl coenzyme A], for which the “histone acetyltransferase assay, anti-acetyl-lysine immunoblot and mass spectrom” value is “recombinant KKT23 was incubated with acetyl-CoA and nucleosomes reconstituted using either T. brucei or H. sapiens”.

The values above are taken from paper doi:10.1101/2024.08.16.608276v1, “The kinetoplastid kinetochore protein KKT23 acetyltransferase is a structural homolog of GCN5 that acetylates the histone H2A C-terminal tail” (biorxiv, 2024).
